The values below are quoted from earlier work in article PMC6504684 (Frontiers in Pharmacology, 2019).

One series concerns α9α10 nAChR. Conditions: cited from earlier work.
A further series has as its system GABAβ receptors. Conditions: cited from earlier work.
The next series relates to rat α9α10 nAChR. Conditions: cited from earlier work.
The subject of series [1] is models of pain and inflammation. Particulars: in vivo; cited from earlier work.

Broadly, the IC50 is the concentration at which inhibition is half-maximal. As for Vc1.1, the “selectivity for the α9α10 nAChR, in words” value in the series with α9α10 nAChR is “α9α10 selective”. Also, in the series on GABAβ receptors, the “effects via GABAβ receptors, in words” value is “can also be transmitted via inhibition of GABAβ receptors”. Further, the IC50 in the series with rat α9α10 nAChR is 19 nM. The “analgesic and anti-inflammatory effects, in words” value in series [1] is “analgesic and anti-inflammatory effects”.
